The values below come from patent US6878722B2, “Substituted cycloalkyl P1′ hepatitis C virus inhibitors” (Bristol-Myers Squibb Company, priority 2002, dated 2005).

The term IC50 denotes the concentration needed to halve the response being measured. For orientation: EC50 means the concentration giving half of the maximal effect.

Where only a bound is given, the exact number is not on record here.

The target in experiment [1] is T1, HCV NS3/4A protease complex (BMS strain, genotype 1a) (Hepatitis C virus genotype 1a, UniProt P27958, C1454S).
T1 construct: DNA encoding the recombinant HCV NS3/4A protease complex (amino acids 1027 to 1711) for these strains; inferred from the pET21b vector and Ni-NTA purification; made in house; host or cells: Escherichia coli BL21 (DE3), pET21b
T1 sequence (P27958 1658-1714, looked up, stated change not applied): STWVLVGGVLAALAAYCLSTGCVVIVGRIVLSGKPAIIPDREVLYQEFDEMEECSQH
T1 sequence (P27958 1027-1657, looked up, stated change not applied): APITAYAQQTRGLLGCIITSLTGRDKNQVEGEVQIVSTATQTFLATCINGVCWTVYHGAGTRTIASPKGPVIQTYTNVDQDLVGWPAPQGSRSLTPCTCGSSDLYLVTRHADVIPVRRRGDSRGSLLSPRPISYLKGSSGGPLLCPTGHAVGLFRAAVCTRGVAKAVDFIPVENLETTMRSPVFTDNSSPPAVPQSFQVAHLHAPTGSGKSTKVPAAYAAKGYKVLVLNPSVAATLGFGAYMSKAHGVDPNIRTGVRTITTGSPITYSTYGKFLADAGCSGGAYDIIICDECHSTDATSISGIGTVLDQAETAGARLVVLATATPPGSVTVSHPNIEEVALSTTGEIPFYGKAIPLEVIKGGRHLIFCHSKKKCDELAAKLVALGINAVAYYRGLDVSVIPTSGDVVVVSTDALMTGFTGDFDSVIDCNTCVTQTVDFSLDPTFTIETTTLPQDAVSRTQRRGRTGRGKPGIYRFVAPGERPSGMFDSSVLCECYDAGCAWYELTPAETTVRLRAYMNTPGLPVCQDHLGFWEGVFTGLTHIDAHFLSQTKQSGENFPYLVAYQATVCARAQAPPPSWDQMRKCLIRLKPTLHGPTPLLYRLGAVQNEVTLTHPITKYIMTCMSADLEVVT
As to the kind of experiment: Recombinant HCV NS3/4A protease complex FRET peptide assay, BMS strain. The experiment is classed as biochemical. Particulars: IC50 range, NS3/4A BMS Strain. The source says: The purpose of this in vitro assay was to measure the inhibition of HCV NS3 protease complexes, derived from the BMS, H77C or J416S strains, as described below, by compounds of the present invention.
Serum from an HCV-infected patient was obtained from Dr. T. Wright, San Francisco Hospital. An engineered full-length cDNA (compliment deoxyribonucleic acid) template of the HCV genome (BMS strain) was constructed from DNA fragments obtained by reverse transcription-PCR (RT-PCR) of serum RNA (ribonucleic acid) and using primers selected on the basis of homology between other genotype 1a strains. […] The infectious clones, H77C (1a genotype) and J4L6S (1b genotype) were obtained from R. Purcell (NIH) and the sequences are published in Genbank (AAB67036, see Yanagi,M., Purcell,R. H., Emerson,S. U. and Bukh,J. Proc. Natl. Acad. Sci. U.S.A. 94(16),8738-8743 (1997); AF054247, see Yanagi,M., St Claire,M., Shapiro,M., Emerson,S. U., Purcell,R. H. and Bukh,J, Virology 244 (1), 161-172. (1998)).
The BMS, H77C and J4L6S strains were used for production of recombinant NS3/4A protease complexes. DNA encoding the recombinant HCV NS3/4A protease complex (amino acids 1027 to 1711) for these strains were manipulated as described by P. Gallinari et al. (see Gallinari P, Paolini C, Brennan D, Nardi C, Steinkuhler C, De Francesco R. Biochemistry. 38(17):5620-32, (1999)). Briefly, a three-lysine solubilizing tail was added at the 3′-end of the NS4A coding region. The cysteine in the P1 position of the NS4A-NS4B cleavage site (amino acid 1711) was changed to a glycine to avoid the proteolytic cleavage of the lysine tag. Furthermore, a cysteine to serine mutation was introduced by PCR at amino acid position 1454 to prevent the autolytic cleavage in the NS3 helicase domain. The variant DNA fragment was cloned in the pET21b bacterial expression vector (Novagen) and the NS3/4A complex was expressed in Escherichia. coli strain BL21 (DE3) (Invitrogen) following the protocol described by P. Gallinari et al. (see Gallinari P, Brennan D, Nardi C, Brunetti M, Tomei L, Steinkuhler C, De Francesco R., J. Virol. 72(8):6758-69 (1998)) with modifications. Briefly, NS3/4A expression was induced with 0.5 mM Isopropyl β-D-1-thiogalactopyranoside (IPTG) for 22 hr at 20° C. […] The cells were resuspended in lysis buffer (10 mL/g) consisting of 25 mM N-(2-Hydroxyethyl)Piperazine-N′-(2-Ethane Sulfonic acid) (HEPES), pH 7.5, 20% glycerol, 500 mM Sodium Chloride (NaCl), 0.5% Triton-X100, 1 ug/ml lysozyme, 5 mM Magnesium Chloride (MgCl2), 1 ug/ml DnaseI, 5 mM β-Mercaptoethanol (βME), Protease inhibitor—Ethylenediamine Tetraacetic acid (EDTA) free (Roche), homogenized and incubated for 20 mins at 4° C. The homogenate was sonicated and clarified by ultra-centrifugation at 235000 g for 1 hr at 4° C. Imidazole was added to the supernatant to a final concentration of 15 mM and the pH adjusted to 8.0. The crude protein extract was loaded on a Nickel-Nitrilotriacetic acid (Ni-NTA) column pre-equilibrated with buffer B (25 mM HEPES, pH 8.0, 20% glycerol, 500 mM NaCl, 0.5% Triton-X100, 15 mM imidazole, 5 mM βME). The sample was loaded at a flow rate of 1 mL/min. The column was washed with 15 column volumes of buffer C (same as buffer B except with 0.2% Triton-X100). The protein was eluted with 5 column volumes of buffer D (same as buffer C except with 200 mM Imidazole).
NS3/4A protease complex-containing fractions were pooled and loaded on a desalting column Superdex-S200 pre-equilibrated with buffer D (25 mM HEPES, pH7.5, 20% glycerol, 300 mM NaCl, 0.2% Triton-X100, 10 mM βME).

Experiment [2] relates to HCV replicon in Huh7 cells. Description: HCV replicon cell-based assay (FRET). Particulars: Hepatitis C virus, Huh-7; HCV replicon; read-out: EC50 range. The source says:
An HCV replicon whole cell system was established as described by Lohmann V, Korner F, Koch J, Herian U, Theilmann L, Bartenschlager R., Science 285(5424):110-3 (1999). This system enabled us to evaluate the effects of our HCV Protease compounds on HCV RNA replication. Briefly, using the HCV strain 1B sequence described in the Lohmann paper (Assession number: AJ238799), an HCV cDNA was generated encoding the 5′ internal ribosome entry site (IRES), the neomycin resistance gene, the EMCV (encephalomyocarditis viurs)-IRES and the HCV nonstructural proteins, NS3-NS5B, and 3′ non-translated region (NTR). In vitro transcripts of the cDNA were transfected into the human hepatoma cell line, Huh7. […] Resulting cell lines were characterized for positive and negative strand RNA production and protein production over time.
Huh7 cells, constitutively expressing the HCV replicon, were grown in Dulbecco's Modified Eagle Media (DMEM) containing 10% Fetal calf serum (FCS) and 1 mg/ml G418 (Gibco-BRL). Cells were seeded the night before (1.5×10^4 cells/well) in 96-well tissue-culture sterile plates. Compound and no compound controls were prepared in DMEM containing 4% FCS, 1:100 Penicillin/Streptomysin, 1:100 L-glutamine and 5% DMSO in the dilution plate (0.5% DMSO final concentration in the assay). Compound/DMSO mixes were added to the cells and incubated for 4 days at 37° C. After 4 days, plates were rinsed thoroughly with Phosphate-Buffered Saline (PBS) (3 times 150 μl). The cells were lysed with 25 μl of a lysis assay reagent containing the FRET peptide (RET S1, as described for the in vitro enzyme assay). The lysis assay reagent was made from 5× cell Luciferase cell culture lysis reagent(Promega #E153A) diluted to 1× with distilled water, NaCl added to 150 mM final, the FRET peptide diluted to 10 μM final from a 2 mM stock in 100% DMSO. The plate was then placed into the Cytofluor 4000 instrument which had been set to 340 nm excitation/490 emission, automatic mode for 21 cycles and the plate read in a kinetic mode. EC50 determinations were carried out as described for the IC50 determinations.

`CCCC1(S(=O)(=O)NC(=O)C2(NC(=O)[C@@H]3C[C@@H](Oc4cc(-c5ccccc5)nc5cc(OC)ccc45)CN3C(=O)[C@@H](NC(=O)OC(C)(C)C)C(C)(C)C)CC23CC3)CC1` (mixture of isomers) [Compound 200, (1-{4-(7-Methoxy-2-phenyl-quinolin-4-yloxy)-2-[1-(1-propyl-cyclopropane-sulfonylaminocarbonyl)-spiro[2.2]pent-1-ylcarbamoyl]-pyrrolidine-1-carbonyl}-2,2-dimethyl-propyl)-carbamic acid tert-butyl ester]: the IC50 in experiment [1] lay in the range of 50 to 500 nM. Moreover, the EC50 in experiment [2] fell in the range of 500 to 5000 nM.

Regarding `COc1ccc2c(O[C@@H]3C[C@@H](C(=O)NC4(C(=O)NS(=O)(=O)C5(Cc6ccccc6)CC5)CC45CC5)N(C(=O)[C@@H](NC(=O)OC(C)(C)C)C(C)(C)C)C3)cc(-c3ccccc3)nc2c1` (mixture of isomers) [Compound 201, {1-[2-[1-(1-Benzyl-cyclopropanesulfonylaminocarbonyl)-spiro[2.2]pent-1-ylcarbamoyl]-4-(7-methoxy-2-phenyl-quinolin-4-yloxy)-pyrrolidine-1-carbonyl]-2,2-dimethyl-propyl}-carbamic acid tert-butyl ester], in experiment [1], the IC50 was 500 to 5000 nM. In addition, the EC50 in experiment [2] is 5000 to 50000 nM.

For the compound `COc1ccc2c(O[C@@H]3C[C@@H](C(=O)NC4(C(=O)NS(=O)(=O)C5(CC6CC6)CC5)CC45CC5)N(C(=O)[C@@H](NC(=O)OC(C)(C)C)C(C)(C)C)C3)cc(-c3ccccc3)nc2c1` (mixture of isomers) [Compound 202, {1-[2-[1-(1-Cyclopropylmethyl-cyclopropanesulfonylaminocarbonyl)-spiro[2.2]pent-1-ylcarbamoyl]-4-(7-methoxy-2-phenyl-quinolin-4-yloxy)-pyrrolidine-1-carbonyl]-2,2-dimethyl-propyl}-carbamic acid tert-butyl ester], in experiment [1], the IC50 was 50 to 500 nM. Besides, the EC50 in experiment [2] fell in the range of 500 to 5000 nM.

Regarding `C=CC1C[C@]1(NC(=O)[C@@H]1C[C@@H](Oc2cc(-c3ccccc3)nc3cc(OC)ccc23)CN1C(=O)[C@@H](NC(=O)OC(C)(C)C)C(C)(C)C)C(=O)NS(=O)(=O)C1(C2=CCCCC2)CC1` (stereo in doubt) [Compound 3, {1-[2-[1-(1-Cyclohex-1-enyl-cyclopropanesulfonylaminocarbonyl)-2-vinylcyclopropylcarbamoyl]-4-(7-methoxy-2-phenyl-quinolin-4-yloxy)pyrrolidine-1-carbonyl]-2,2-dimethylpropyl}carbamic acid tert-butyl ester], the 50% inhibitory concentration (IC50) in experiment [1] was 50 to 500 nM. Further, in experiment [2], the EC50 was 50 to 500 nM.

Regarding `C=CC1C[C@]1(NC(=O)[C@@H]1C[C@@H](Oc2cc(-c3ccccc3)nc3cc(OC)ccc23)CN1C(=O)[C@@H](NC(=O)OC(C)(C)C)C(C)(C)C)C(=O)NS(=O)(=O)C1(C(=O)c2ccccc2)CC1` (stereo in doubt) [Compound 4, {1-[2-[1-(1-Benzoylcyclopropanesulfonyl-aminocarbonyl)-2-vinyl-cyclopropylcarbamoyl]-4-(7-methoxy-2-phenylquinolin-4-yloxy)-pyrrolidine-1-carbonyl]-2,2-dimethylpropyl}-carbamic acid tert-butyl ester], the IC50 in experiment [1] lay in the range of 50 to 500 nM. Moreover, the EC50 in experiment [2] was in the range of 50 to 500 nM.

Regarding `C=CC1C[C@]1(NC(=O)[C@@H]1C[C@@H](Oc2cc(-c3ccccc3)nc3cc(OC)ccc23)CN1C(=O)[C@@H](NC(=O)OC(C)(C)C)C(C)(C)C)C(=O)NS(=O)(=O)C1(Cc2ccccc2)CC1` (stereo in doubt) [Compound 5, {1-[2-[1-(1-Benzylcyclopropanesulfonyl-aminocarbonyl)-2-vinyl-cyclopropylcarbamoyl]-4-(7-methoxy-2-phenylquinolin-4-yloxy)-pyrrolidine-1-carbonyl]-2,2-dimethylpropyl}-carbamic acid tert-butyl ester], the IC50 in experiment [1] is below 50 nM. In addition, in experiment [2], the EC50 was below 50 nM.

Take `C=CC1C[C@]1(NC(=O)[C@@H]1C[C@@H](Oc2cc(-c3ccccc3)nc3cc(OC)ccc23)CN1C(=O)[C@@H](NC(=O)OC(C)(C)C)C(C)(C)C)C(=O)NS(=O)(=O)C1(C(=O)Nc2ccccc2)CC1` (stereo in doubt) [Compound 6, (1-{4-(7-Methoxy-2-phenyl-quinolin-4-yloxy)-2-[1-(1-phenylcarbamoyl-cyclopropane-sulfonylaminocarbonyl)-2-vinylcyclopropylcarbamoyl]-pyrrolidine-1-carbonyl}-2,2-dimethyl-propyl)carbamic acid tert-butyl ester]: the half-maximal inhibitory concentration (IC50) in experiment [1] is below 50 nM. In experiment [2], the concentration for a half-maximal effect (EC50) lay within 50 to 500 nM.

For `COc1ccc2c(O[C@@H]3C[C@@H](C(=O)NC4(C(=O)NS(=O)(=O)C5(C(=O)c6ccccc6)CC5)CC4)N(C(=O)[C@@H](NC(=O)OC(C)(C)C)C(C)(C)C)C3)cc(-c3ccccc3)nc2c1` [Compound 73], in experiment [1], the IC50 lay in the range of 500 to 5000 nM.

As to `C=C[C@@H]1C[C@]1(NC(=O)[C@@H]1C[C@@H](Oc2cc(-c3ccccc3)nc3cc(OC)ccc23)CN1C(=O)[C@@H](NC(=O)O[C@@H]1C[C@H](C)CC[C@H]1C(C)C)C(C)(C)C)C(=O)NS(=O)(=O)C1(Cc2ccccc2)CC1` [Compound 109], in experiment [1], the IC50 was in the range of 500 to 5000 nM.

As to `C=C[C@@H]1C[C@]1(NC(=O)[C@@H]1C[C@@H](Oc2cc(-c3ccccc3)nc3cc(OC)ccc23)CN1C(=O)[C@@H](NC(=O)[C@@H]1COc2ccccc2O1)C(C)(C)C)C(=O)NS(=O)(=O)C1(Cc2ccccc2)CC1` [Compound 113], in experiment [1], the IC50 lay in the range of 500 to 5000 nM.
